Data published in patent publication US8802597B2, “Herbicidal pyrimidines” (E I du Pont de Nemours and Company, priority 2003, dated 2014).

How the values were obtained:
Assay in all cases: Test C pre/postemergence
Format in all cases: in vivo
[1] = system: Surinam grass (Brachiaria decumbens); settings: for Plant response rating (scale of 0 to 100), Surinam Grass / Surinam Grass plant response rating: Postemergence; for Surinam Grass plant response rating: scale 0 to 100 (0 no effect, 100 complete control); for Plant response rating, Surinam Grass: Preemergence
From the text: (§1) Seeds or nutlets of plant species selected from bermudagrass (Cynodon dactylon), Surinam grass (Brachiaria decumbens), cocklebur (Xanthium strumarium), corn (Zea mays), crabgrass (Digitaria sanguinalis), woolly cupgrass (Eriochloa villosa), giant foxtail (Setaria faberii), goosegrass (Eleusine indica), johnsongrass (Sorghum halepense), kochia (Kochia scoparia), lambsquarters (Chenopodium album), morningglory (Ipomoea coccinea), eastern black nightshade (Solanum ptycanthum), yellow nutsedge (Cyperus esculentus), pigweed (Amaranthus retroflexus), common ragweed (Ambrosia elatior), soybean (Glycine max), common (oilseed) sunflower (Helianthus annuus), and velvetleaf (Abutilon theophrasti) were planted and treated preemergence with test chemicals formulated in a non-phytotoxic solvent mixture which included a surfactant.
(§2) At the same time, plants selected from these crop and weed species and also winter barley (Hordeum vulgare), blackgrass (Alopecurus myosuroides), canarygrass (Phalaris minor), chickweed (Stellaria media), downy brome (Bromus tectorum), green foxtail (Setaria viridis), Italian ryegrass (Lolium multiflorum), wheat (Triticum aestivum), wild oat (Avena fatua) and windgrass (Apera spica-venti) were treated with postemergence applications of some of the test chemicals formulated in the same manner. Plants ranged in height from 2 to 18 cm (1- to 4-leaf stage) for postemergence treatments. Plant species in the flooded paddy test consisted of rice (Oryza sativa), umbrella sedge (Cyperus difformis), duck salad (Heteranthera limosa) and barnyardgrass (Echinochloa crus-galli) grown to the 2-leaf stage for testing. Treated plants and controls were maintained in a greenhouse for 12 to 14 days, after which time all species were compared to controls and visually evaluated. Plant response ratings, summarized in Table C, are based on a scale of 0 to 100 where 0 is no effect and 100 is complete control. A dash (-) response means no test result.

[2] = system: cocklebur (Xanthium strumarium); settings: for Plant response rating (scale of 0 to 100), Cocklebur / Cocklebur plant response rating: Postemergence; for Cocklebur plant response rating: scale 0 to 100 (0 no effect, 100 complete control); for Plant response rating, Cocklebur: Preemergence
From the text: as §1, §2

[3] = system: common (oilseed) sunflower (Helianthus annuus); settings: Preemergence
From the text: as §1, §2

corn (Zea mays) = settings: for Plant response rating (scale of 0 to 100), Corn / Corn plant response rating: Postemergence; for Corn plant response rating: scale 0 to 100 (0 no effect, 100 complete control); for Plant response rating, Corn: Preemergence
From the text: as §1, §2

[4] = system: crabgrass (Digitaria sanguinalis); settings: for Plant response rating (scale of 0 to 100), Crabgrass / Crabgrass plant response rating: Postemergence; for Crabgrass plant response rating: scale 0 to 100 (0 no effect, 100 complete control); for Plant response rating, Crabgrass: Preemergence
From the text: as §1, §2

[5] = system: giant foxtail (Setaria faberii); settings: for Plant response rating (scale of 0 to 100), Foxtail, Giant / Foxtail, Giant plant response rating: Postemergence; for Foxtail, Giant plant response rating: scale 0 to 100 (0 no effect, 100 complete control); for Plant response rating, Foxtail, Giant: Preemergence
From the text: as §1, §2

[6] = system: johnsongrass (Sorghum halepense); settings: for Plant response rating (scale of 0 to 100), Johnsongrass / Johnsongrass plant response rating: Postemergence; for Johnsongrass plant response rating: scale 0 to 100 (0 no effect, 100 complete control); for Plant response rating, Johnsongrass: Preemergence
From the text: as §1, §2

kochia (Kochia scoparia) = settings: for Plant response rating (scale of 0 to 100), Kochia / Kochia plant response rating: Postemergence; for Kochia plant response rating: scale 0 to 100 (0 no effect, 100 complete control); for Plant response rating, Kochia: Preemergence
From the text: as §1, §2

[7] = system: lambsquarters (Chenopodium album); settings: for Plant response rating (scale of 0 to 100), Lambsquarters / Lambsquarters plant response rating: Postemergence; for Lambsquarters plant response rating: scale 0 to 100 (0 no effect, 100 complete control); for Plant response rating, Lambsquarters: Preemergence
From the text: as §1, §2

[8] = system: morningglory (Ipomoea coccinea); settings: for Plant response rating (scale of 0 to 100), Morningglory / Morningglory plant response rating: Postemergence; for Morningglory plant response rating: scale 0 to 100 (0 no effect, 100 complete control); for Plant response rating, Morningglory: Preemergence
From the text: as §1, §2

soybean (Glycine max) = settings: for Plant response rating (scale of 0 to 100), Soybean / Soybean plant response rating: Postemergence; for Soybean plant response rating: scale 0 to 100 (0 no effect, 100 complete control)
From the text: as §1, §2

[9] = 16 g ai/ha, scale 0 to 100, 0 no effect, 100 complete control
[10] = 31 g ai/ha, scale 0 to 100, 0 no effect, 100 complete control
[11] = 62 g ai/ha, scale 0 to 100, 0 no effect, 100 complete control

COCc1nc(C2CC2)nc(N)c1Br [Compound 11]
80: Lambsquarters plant response rating ([7]; 125 g ai/ha) | Soybean plant response rating (soybean (Glycine max); 62 g ai/ha)
90: Kochia plant response rating (kochia (Kochia scoparia); 125 g ai/ha)
85: Plant response rating, Lambsquarters ([7]; 125 g ai/ha, scale 0 to 100)
55: Plant response rating, Soybean (soybean (Glycine max); Preemergence, 125 g ai/ha, scale 0 to 100)
50: Plant response rating (scale of 0 to 100), Lambsquarters ([7]; 16 g ai/ha)
60: Plant response rating, Crabgrass ([4]; 125 g ai/ha, scale 0 to 100) | Plant response rating, Kochia (kochia (Kochia scoparia); 125 g ai/ha, scale 0 to 100) | Plant response rating (scale of 0 to 100), Lambsquarters ([7]; 31 g ai/ha) | Plant response rating (scale of 0 to 100), Soybean (soybean (Glycine max); 31 g ai/ha)
45: Plant response rating (scale of 0 to 100), Soybean (soybean (Glycine max); 16 g ai/ha)
25: Cocklebur plant response rating ([2]; 62 g ai/ha)
70: Lambsquarters plant response rating ([7]; 62 g ai/ha)
100: Plant response rating, Surinam Grass [1, 11] | Plant response rating, Surinam Grass ([1]; 125 g ai/ha, scale 0 to 100)
75: Plant response rating, Johnsongrass ([6]; 125 g ai/ha, scale 0 to 100) | Kochia plant response rating (kochia (Kochia scoparia); 62 g ai/ha)
95: Soybean plant response rating (soybean (Glycine max); 125 g ai/ha)
0: Plant response rating (scale of 0 to 100), Surinam Grass ([1]; 16 g ai/ha) | Plant response rating (scale of 0 to 100), Surinam Grass ([1]; 31 g ai/ha) | Surinam Grass plant response rating ([1]; 62 g ai/ha) | Surinam Grass plant response rating ([1]; 125 g ai/ha) | Plant response rating, Surinam Grass [1, 9] | Plant response rating, Surinam Grass [1, 10] | Plant response rating (scale of 0 to 100), Cocklebur ([2]; 16 g ai/ha) | Plant response rating (scale of 0 to 100), Cocklebur ([2]; 31 g ai/ha) | Plant response rating, Cocklebur [2, 9] | Plant response rating, Cocklebur [2, 10] | Plant response rating, Cocklebur [2, 11] | Plant response rating, Cocklebur ([2]; 125 g ai/ha, scale 0 to 100) | Plant response rating, Sunflower [3, 9] | Plant response rating, Sunflower [3, 10] | Plant response rating, Sunflower [3, 11] | Plant response rating, Sunflower ([3]; 125 g ai/ha, scale 0 to 100) | Plant response rating (scale of 0 to 100), Corn (corn (Zea mays); 16 g ai/ha) | Plant response rating (scale of 0 to 100), Corn (corn (Zea mays); 31 g ai/ha) | Corn plant response rating (corn (Zea mays); 62 g ai/ha) | Corn plant response rating (corn (Zea mays); 125 g ai/ha) | Plant response rating, Corn (corn (Zea mays); [9]) | Plant response rating, Corn (corn (Zea mays); [10]) | Plant response rating, Corn (corn (Zea mays); [11]) | Plant response rating, Corn (corn (Zea mays); 125 g ai/ha, scale 0 to 100) | Plant response rating (scale of 0 to 100), Crabgrass ([4]; 16 g ai/ha) | Plant response rating (scale of 0 to 100), Crabgrass ([4]; 31 g ai/ha) | Crabgrass plant response rating ([4]; 62 g ai/ha) | Plant response rating, Crabgrass [4, 9] | Plant response rating, Crabgrass [4, 10] | Plant response rating, Crabgrass [4, 11] | Plant response rating (scale of 0 to 100), Foxtail, Giant ([5]; 16 g ai/ha) | Plant response rating (scale of 0 to 100), Foxtail, Giant ([5]; 31 g ai/ha) | Foxtail, Giant plant response rating ([5]; 62 g ai/ha) | Foxtail, Giant plant response rating ([5]; 125 g ai/ha) | Plant response rating, Foxtail, Giant [5, 9] | Plant response rating, Foxtail, Giant [5, 10] | Plant response rating, Foxtail, Giant [5, 11] | Plant response rating (scale of 0 to 100), Johnsongrass ([6]; 16 g ai/ha) | Plant response rating (scale of 0 to 100), Johnsongrass ([6]; 31 g ai/ha) | Johnsongrass plant response rating ([6]; 62 g ai/ha) | Johnsongrass plant response rating ([6]; 125 g ai/ha) | Plant response rating, Johnsongrass [6, 9] | Plant response rating, Johnsongrass [6, 10] | Plant response rating, Johnsongrass [6, 11] | Plant response rating, Kochia (kochia (Kochia scoparia); [9]) | Plant response rating, Kochia (kochia (Kochia scoparia); [10]) | Plant response rating, Kochia (kochia (Kochia scoparia); [11]) | Plant response rating, Lambsquarters [7, 9] | Plant response rating, Lambsquarters [7, 10] | Plant response rating (scale of 0 to 100), Morningglory ([8]; 16 g ai/ha) | Plant response rating (scale of 0 to 100), Morningglory ([8]; 31 g ai/ha) | Morningglory plant response rating ([8]; 62 g ai/ha) | Morningglory plant response rating ([8]; 125 g ai/ha) | Plant response rating, Morningglory [8, 9] | Plant response rating, Morningglory [8, 10] | Plant response rating, Morningglory [8, 11] | Plant response rating, Morningglory ([8]; 125 g ai/ha, scale 0 to 100)
65: Plant response rating (scale of 0 to 100), Kochia (kochia (Kochia scoparia); 31 g ai/ha)
20: Crabgrass plant response rating ([4]; 125 g ai/ha) | Plant response rating, Foxtail, Giant ([5]; 125 g ai/ha, scale 0 to 100)
40: Cocklebur plant response rating ([2]; 125 g ai/ha) | Plant response rating (scale of 0 to 100), Kochia (kochia (Kochia scoparia); 16 g ai/ha) | Plant response rating, Lambsquarters [7, 11]
